Key:
rhBMP-2 dimers = biological target: T1, rhBMP-2 dimers (Homo sapiens, UniProt P12643); assay: solubilization of rhBMP-2 pellets in phosphate buffered saline with pyrrolidones; conditions: 2 h in phosphate buffered saline with increasing amounts of pyrrolidone
T1 sequence (P12643 283-396): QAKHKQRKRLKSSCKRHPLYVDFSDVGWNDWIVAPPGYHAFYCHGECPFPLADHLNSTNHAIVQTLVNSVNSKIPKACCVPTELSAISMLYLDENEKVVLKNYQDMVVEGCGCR
Method: Two to twenty micrograms of the rhBMP protein was lyophilized in a speed-vac to form a solid rhBMP disc. […] After 2 h the protein in the remaining disc was sedimented (22,000×g, 30 min) and the protein content of 20 μl from the supernatant determined by a slot-blot method (Weber, F. E., et al., 2002, supra).

MC3T3-E1 cells [1] = assay: alkaline phosphatase activity as marker of maturation of preosteoblastic cell line; type: cell-based
Method: (§1) MC3T3-E1 cells were grown in an alpha-modified Minimum Essential Medium (Life Technologies, Inc., Grand Island, N.Y.) containing 10% fetal calf serum (Life Technologies, Inc.), 50 μg/ml gentamycin, and 50 μg/ml ascorbic acid. C3H10T1/2 cells were grown in basal medium Eagle, and 50 μg/ml gentamycin. To examine the action of NMP on both cell lines, 1×10^5 cells per well were plated in 6-well plates and NMP subsequently added. Medium exchange was performed after 3 days and alkaline phosphatase (ALP) was determined according to Lowry, O. et al. [J. Biol. Chem. 207 (1954) 19–37]: p-nitrophenol liberated was converted to p-nitrophenylate by adding 400 μl of 1 M NaOH, which was quantitated by measuring the absorbance at 410 nm (epsilon=17500/molxcm). Alkaline phosphatase activity was normalized to total protein and expressed as nmol nitrophenylate generated per min per mg protein.
First, to verify the osteoinductive activity of NMP an embryonic, murine, mesenchymal stem cell line C3H10T1/2 and a preosteoblastic cell line MC3T3-E1 were used and cultured as described above. C3H10T1/2 cells can differentiate into cartilage, bone or adipose cells, whereas MC3T3-E1 produces and releases autologous BMP. Alkaline phosphatase activity was used as a marker for the differentiation into the osteoblastic lineage. […]

C3H10T1/2 cells = assay: alkaline phosphatase activity in mesenchymal stem cell line; type: cell-based, murine; conditions: C3H10T1/2 cells treated with up to 5 mM NMP; data not shown
Method: as §1
First, to verify the osteoinductive activity of NMP an embryonic, murine, mesenchymal stem cell line C3H10T1/2 and a preosteoblastic cell line MC3T3-E1 were used and cultured as described above. C3H10T1/2 cells can differentiate into cartilage, bone or adipose cells, whereas MC3T3-E1 produces and releases autologous BMP. Alkaline phosphatase activity was used as a marker for the differentiation into the osteoblastic lineage.

MC3T3-E1 cells [2] = assay: mineralization by Alizarin red-S staining; type: cell-based; conditions: 4 weeks, 5 Mm glycerol phosphate and 1 μg/ml rhBMP-2, 2.5 Mm NMP vs no NMP
Method: Alizarin red-S staining was performed after 4 weeks according to Bodine, P. V. N., et al. [J Bone Mineral Res 11 (1996) 806–819].

Row | Structure (SMILES) | potential to solubilize rhBMP-2, grading in declining order (rhBMP-2 dimers) | maturation determined by alkaline phosphatase activity, concentration dependence (MC3T3-E1 cells [1]; after 6 days, 0 to 5 Mm of NMP) | increase of alkaline phosphatase activity (factor) (MC3T3-E1 cells [1]; low doses of NMP, MC3T3-E1) | alkaline phosphatase activity (C3H10T1/2 cells) | mineralisation (alizarin-S-staining) (MC3T3-E1 cells [2])
1 | CN1CCCC1=O [NMP, 1-methyl-2-pyrrolidone] | 1-methyl-2-pyrrolidone (NMP)>1-ethyl-2-pyrrolidone (NEP)>2-pyrrolidone (PB)>1-cyclohexyl-2-pyrrolidone (CP) | increases in a concentration dependent manner | 2.5–3.0 | not increased | increased mineralisation
2 | O=C1CCCN1 [PB, 2-pyrrolidone] | 1-methyl-2-pyrrolidone (NMP)>1-ethyl-2-pyrrolidone (NEP)>2-pyrrolidone (PB)>1-cyclohexyl-2-pyrrolidone (CP) |  |  |  | 
